Experimental data: ChEMBL document CHEMBL4152341, “Small Molecules Simultaneously Inhibiting p53-Murine Double Minute 2 (MDM2) Interaction and Histone Deacetylases (HDACs): Discovery of Novel Multitargeting Antitumor Agents” (J Med Chem, 2018)

Tests used:
[1] = Cmax in Sprague-Dawley rat at 2 mg/kg, iv administered as bolus dose by LC-MS/MS analysis; type: ADME, organism-based; design: dose 2 mg/kg, route intravenous; conditions: in vivo
Mus musculus [2] = assay: Toxicity in human A549 cells xenografted in BALB/C nude mouse assessed as induction of adverse effects at 100 to 150 mg/kg, po administered once daily for 21 days starting day 11 after tumor cells implantation; type: organism-based; conditions: in vivo, 504 h
Rattus norvegicus [3] = assay: Oral bioavailability in Sprague-Dawley rat at 20 mg/kg administered via gavage by LC-MS/MS analysis; type: ADME, organism-based; conditions: in vivo
NCI-H1299 = assay: Antiproliferative activity against human NCI-H1299 cells after 72 hrs by CCK8 assay; type: functional, cell-based; conditions: NCI-H1299, 72 h
[4] = Cmax in Sprague-Dawley rat at 20 mg/kg, po administered via gavage by LC-MS/MS analysis; type: ADME, organism-based; design: dose 20 mg/kg, route oral; conditions: in vivo
A549 [5] = assay: animal or person; type: functional, Homo sapiens; conditions: Mus musculus, A549, po, read-out: TGI
A549 [6] = assay: Antiproliferative activity against human A549 cells after 72 hrs by CCK8 assay; type: functional, cell-based; conditions: A549, 72 h
Histone deacetylase 2 = Histone deacetylase 2 (Homo sapiens, UniProt Q92769); assay: Inhibition of HDAC2 (unknown origin) after 30 mins by fluorescence assay
Sequence of Histone deacetylase 2 (Q92769 whole entry): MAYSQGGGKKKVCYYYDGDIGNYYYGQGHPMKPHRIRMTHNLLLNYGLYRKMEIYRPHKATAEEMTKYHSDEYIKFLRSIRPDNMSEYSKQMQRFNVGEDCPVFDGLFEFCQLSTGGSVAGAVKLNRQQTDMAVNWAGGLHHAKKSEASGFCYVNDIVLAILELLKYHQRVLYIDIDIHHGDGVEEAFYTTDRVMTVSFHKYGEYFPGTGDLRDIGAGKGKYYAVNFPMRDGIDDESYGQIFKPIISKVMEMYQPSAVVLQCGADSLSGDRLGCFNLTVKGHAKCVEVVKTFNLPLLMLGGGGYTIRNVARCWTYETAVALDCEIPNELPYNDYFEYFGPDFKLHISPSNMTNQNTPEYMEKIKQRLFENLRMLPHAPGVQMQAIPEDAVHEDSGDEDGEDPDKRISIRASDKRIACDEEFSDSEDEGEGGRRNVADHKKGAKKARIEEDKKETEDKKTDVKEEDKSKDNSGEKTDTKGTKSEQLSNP

Histone deacetylase 3 = Histone deacetylase 3 (Homo sapiens, UniProt O15379); assay: Inhibition of HDAC3 (unknown origin) after 30 mins by fluorescence assay
Sequence of Histone deacetylase 3 (O15379 whole entry): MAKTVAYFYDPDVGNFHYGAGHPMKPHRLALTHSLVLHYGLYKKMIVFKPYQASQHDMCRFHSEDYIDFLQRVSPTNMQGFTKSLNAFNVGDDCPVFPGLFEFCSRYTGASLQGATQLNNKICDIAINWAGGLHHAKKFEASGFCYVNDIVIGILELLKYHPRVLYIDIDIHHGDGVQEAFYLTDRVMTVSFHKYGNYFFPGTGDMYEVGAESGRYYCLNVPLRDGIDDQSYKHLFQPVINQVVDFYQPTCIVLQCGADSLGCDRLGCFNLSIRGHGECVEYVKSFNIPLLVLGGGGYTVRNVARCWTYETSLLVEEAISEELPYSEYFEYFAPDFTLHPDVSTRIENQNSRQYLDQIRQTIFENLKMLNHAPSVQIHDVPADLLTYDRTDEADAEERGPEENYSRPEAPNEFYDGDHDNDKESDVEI

Mus musculus [7] = assay: Toxicity in human A549 cells xenografted in BALB/C nude mouse assessed as body weight loss at 100 to 150 mg/kg, po administered once daily for 21 days starting day 11 after tumor cells implantation; type: organism-based; conditions: in vivo, 504 h
Histone deacetylase 1 = Histone deacetylase 1 (Homo sapiens, UniProt Q13547); assay: Inhibition of human recombinant full length HDAC1 using fluorogenic substrate 3 after 30 mins by fluorescence assay
Sequence of Histone deacetylase 1 (Q13547 whole entry): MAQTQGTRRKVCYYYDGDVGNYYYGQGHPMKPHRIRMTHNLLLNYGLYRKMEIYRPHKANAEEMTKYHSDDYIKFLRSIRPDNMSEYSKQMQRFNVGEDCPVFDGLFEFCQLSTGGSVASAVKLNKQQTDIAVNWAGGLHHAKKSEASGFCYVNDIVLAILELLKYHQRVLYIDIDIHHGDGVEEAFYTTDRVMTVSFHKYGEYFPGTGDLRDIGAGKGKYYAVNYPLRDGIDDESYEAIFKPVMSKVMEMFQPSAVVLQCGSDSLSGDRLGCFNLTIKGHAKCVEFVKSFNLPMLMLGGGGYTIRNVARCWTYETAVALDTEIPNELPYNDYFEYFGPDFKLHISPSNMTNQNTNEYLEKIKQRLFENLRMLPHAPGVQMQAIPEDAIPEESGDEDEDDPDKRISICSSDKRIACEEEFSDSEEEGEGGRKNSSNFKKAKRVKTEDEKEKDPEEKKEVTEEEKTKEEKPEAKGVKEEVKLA

Rattus norvegicus [8] = assay: Clearance in Sprague-Dawley rat at 2 mg/kg, iv administered as bolus dose by LC-MS/MS analysis; type: ADME, organism-based; conditions: in vivo
A549 [9] = assay: Antitumor activity against human A549 cells xenografted in BALB/C nude mouse assessed as inhibition of tumor growth at 150 mg/kg, po administered once daily for 21 days starting day 11 after tumor cells implantation; type: functional; conditions: read-out: TGI
[10] = Tmax in Sprague-Dawley rat at 2 mg/kg, iv administered as bolus dose by LC-MS/MS analysis; type: ADME, organism-based; conditions: in vivo
A549 [11] = assay: cells; conditions: Homo sapiens, A549, 48 h, read-out: Activity
A549 [12] = assay: Antitumor activity against human A549 cells xenografted in BALB/C nude mouse assessed as inhibition of tumor growth administered orally once daily for 21 days starting day 11 after tumor cells implantation; type: functional, cell-based
[13] = Terminal half life in Sprague-Dawley rat at 2 mg/kg, iv administered as bolus dose by LC-MS/MS analysis; type: ADME, organism-based; conditions: in vivo, read-out: beta t1/2 (converted)
[14] = target: E3 ubiquitin-protein ligase Mdm2 (Homo sapiens, UniProt Q00987); assay: Inhibition of MDM2 (unknown origin) preincubated for 30 mins by fluorescence polarization assay
Sequence of E3 ubiquitin-protein ligase Mdm2 (Q00987 whole entry): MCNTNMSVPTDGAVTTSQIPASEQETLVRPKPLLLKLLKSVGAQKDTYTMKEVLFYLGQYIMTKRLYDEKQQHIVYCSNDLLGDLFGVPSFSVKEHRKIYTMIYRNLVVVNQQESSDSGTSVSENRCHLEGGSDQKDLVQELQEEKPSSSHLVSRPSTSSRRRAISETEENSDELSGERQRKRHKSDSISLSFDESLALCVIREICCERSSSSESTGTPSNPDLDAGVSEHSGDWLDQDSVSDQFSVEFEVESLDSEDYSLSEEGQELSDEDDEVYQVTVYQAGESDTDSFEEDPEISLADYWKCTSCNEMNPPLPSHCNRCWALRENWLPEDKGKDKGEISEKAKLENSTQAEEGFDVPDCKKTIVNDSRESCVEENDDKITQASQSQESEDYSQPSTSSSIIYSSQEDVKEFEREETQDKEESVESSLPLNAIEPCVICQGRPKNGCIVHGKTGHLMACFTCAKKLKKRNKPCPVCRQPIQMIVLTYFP

MCF7 = assay: cells; conditions: Homo sapiens, MCF7, 72 h
Description: Antiproliferative activity against human MCF7 cells after 72 hrs by CCK8 assay

Rattus norvegicus [15] = assay: Volume of distribution at steady state in Sprague-Dawley rat at 2 mg/kg, iv administered as bolus dose by LC-MS/MS analysis; type: ADME, organism-based; conditions: in vivo
[16] = target: T1, Protein deacetylase HDAC6 (Homo sapiens, UniProt Q9UBN7); assay: Inhibition of HDAC6 (unknown origin) after 30 mins by fluorescence assay
T1 sequence (Q9UBN7 whole entry): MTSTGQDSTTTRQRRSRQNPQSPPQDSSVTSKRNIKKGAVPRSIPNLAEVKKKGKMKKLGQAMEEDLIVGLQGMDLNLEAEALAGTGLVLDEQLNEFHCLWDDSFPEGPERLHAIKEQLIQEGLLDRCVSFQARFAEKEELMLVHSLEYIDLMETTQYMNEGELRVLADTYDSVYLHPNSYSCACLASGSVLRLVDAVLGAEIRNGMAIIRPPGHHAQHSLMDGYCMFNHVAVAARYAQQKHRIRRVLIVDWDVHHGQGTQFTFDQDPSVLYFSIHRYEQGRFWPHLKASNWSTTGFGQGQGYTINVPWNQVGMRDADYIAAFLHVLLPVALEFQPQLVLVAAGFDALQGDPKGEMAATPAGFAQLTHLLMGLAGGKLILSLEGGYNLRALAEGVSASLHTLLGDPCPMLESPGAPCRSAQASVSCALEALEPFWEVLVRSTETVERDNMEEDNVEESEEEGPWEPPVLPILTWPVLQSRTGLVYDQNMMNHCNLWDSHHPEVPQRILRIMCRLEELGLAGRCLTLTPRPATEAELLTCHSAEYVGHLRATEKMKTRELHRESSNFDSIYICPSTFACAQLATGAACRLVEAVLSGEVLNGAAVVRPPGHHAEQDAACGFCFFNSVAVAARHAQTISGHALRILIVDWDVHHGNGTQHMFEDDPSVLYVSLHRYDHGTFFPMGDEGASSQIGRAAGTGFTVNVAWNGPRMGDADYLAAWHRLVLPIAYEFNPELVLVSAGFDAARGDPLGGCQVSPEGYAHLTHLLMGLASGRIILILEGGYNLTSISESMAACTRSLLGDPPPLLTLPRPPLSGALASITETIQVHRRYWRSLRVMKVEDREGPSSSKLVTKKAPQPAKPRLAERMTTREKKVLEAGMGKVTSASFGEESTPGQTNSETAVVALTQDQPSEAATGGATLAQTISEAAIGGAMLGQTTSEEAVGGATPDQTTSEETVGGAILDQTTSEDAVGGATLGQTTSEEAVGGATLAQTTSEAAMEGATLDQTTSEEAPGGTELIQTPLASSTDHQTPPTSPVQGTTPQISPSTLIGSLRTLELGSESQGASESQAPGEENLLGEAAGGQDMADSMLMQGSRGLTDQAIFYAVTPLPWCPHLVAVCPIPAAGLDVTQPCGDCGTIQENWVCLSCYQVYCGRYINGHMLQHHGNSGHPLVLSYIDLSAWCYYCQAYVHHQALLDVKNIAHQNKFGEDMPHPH

[17] = Tmax in Sprague-Dawley rat at 20 mg/kg, po administered via gavage by LC-MS/MS analysis; type: ADME, organism-based; conditions: in vivo
Rattus norvegicus [18] = assay: AUC (0 to infinity) in Sprague-Dawley rat at 20 mg/kg, po administered via gavage by LC-MS/MS analysis; type: ADME, organism-based; design: dose 20 mg/kg, route oral, time infinity; conditions: in vivo
[19] = Terminal half life in Sprague-Dawley rat at 20 mg/kg, po administered via gavage by LC-MS/MS analysis; type: ADME, organism-based; conditions: in vivo, read-out: beta t1/2 (converted)
Histone deacetylase 8 = target: T2, Histone deacetylase 8 (Homo sapiens, UniProt Q9BY41); assay: Inhibition of HDAC8 (unknown origin) after 30 mins by fluorescence assay
T2 sequence (Q9BY41 whole entry): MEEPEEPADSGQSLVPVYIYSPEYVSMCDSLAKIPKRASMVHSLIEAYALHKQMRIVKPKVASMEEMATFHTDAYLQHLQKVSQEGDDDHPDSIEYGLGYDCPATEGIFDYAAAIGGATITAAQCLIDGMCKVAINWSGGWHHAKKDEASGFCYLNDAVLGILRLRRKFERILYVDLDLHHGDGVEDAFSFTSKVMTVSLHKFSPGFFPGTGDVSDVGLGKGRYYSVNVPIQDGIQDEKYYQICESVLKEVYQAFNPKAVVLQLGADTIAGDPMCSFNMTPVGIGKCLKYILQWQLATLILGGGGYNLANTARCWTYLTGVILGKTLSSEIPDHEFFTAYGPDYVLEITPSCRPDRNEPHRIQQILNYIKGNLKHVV

A549 [20] = assay: cells; conditions: Homo sapiens, A549, 48 h, read-out: Activity; remark: listed apart in the source
HCT-116 = assay: Antiproliferative activity against human HCT116 cells after 72 hrs by CCK8 assay; type: functional, cell-based; conditions: HCT-116, 72 h
Rattus norvegicus [21] = assay: AUC (0 to infinity) in Sprague-Dawley rat at 2 mg/kg, iv administered as bolus dose by LC-MS/MS analysis; type: ADME, organism-based; design: dose 2 mg/kg, time infinity, route intravenous; conditions: in vivo

In the case of CCOc1cc(C(C)(C)C)ccc1C1=NC(c2ccc(Cl)cc2)C(c2ccc(Cl)cc2)N1C(=O)N1CCN(CCCCCCC(=O)NO)CC1 (stereo not drawn), the Cmax [1] is reported as 1.47 µg/mL, the Activity (Mus musculus [2]) is reported as “Non-Toxic” and the F (Rattus norvegicus [3]) is reported as 18%. The IC50 (NCI-H1299) was 4.16 µM, the Cmax [4] was 0.0937 µg/mL and the inhibition in vivo at 100 mg/kg (A549 [5]) was 65.4%. It also gave an IC50 (A549 [6]) of 0.91 µM, an IC50 (Histone deacetylase 2) of 0.42 µM and an IC50 (Histone deacetylase 3) of 0.178 µM. The Activity (Mus musculus [7]) was “Non-Toxic”, the IC50 (Histone deacetylase 1) was 0.82 µM and the clearance (Rattus norvegicus [8]) was 2.81 L/h/kg. It also gave an inhibition in vivo at 150 mg/kg (A549 [9]) of 74.5%, a Tmax [10] of 4.98 min and a viability at 5 µM (A549 [11]) of 64.9%. For the same molecule, the TGI (A549 [12]) was “Dose-dependent effect”, the half-life [13] was 1.22 h and the Ki [14] was 0.11 µM. For the same molecule, the IC50 (MCF7) was 4.34 µM, the Vdss (Rattus norvegicus [15]) was 4.9 L/kg and the IC50 [16] was 0.0175 µM. For the same molecule, the Tmax [17] was 3.33 h, the AUC (Rattus norvegicus [18]) was 0.32323 µg·h/mL and the half-life [19] was 5.87 h. The IC50 (Histone deacetylase 8) was 1.22 µM, the viability at 1 µM (A549 [20]) was 77.2% and the IC50 (HCT-116) was 1.08 µM. The AUC (Rattus norvegicus [21]) was 0.7163 µg·h/mL.
